Calls of active or inactive are those of the source. The rule behind the calls is not given here.

The results in this text go back to ChEMBL document CHEMBL5365537, “Development of LM-41 and AF-2112, two flufenamic acid-derived TEAD inhibitors obtained through the replacement of the trifluoromethyl group by aryl rings” (Bioorg Med Chem Lett, 2023).

Assay [1] deals with Transcriptional enhancer factor TEF-3 (Homo sapiens) (UniProt Q15561). Nature of the assay: Binding affinity to TEAD4 (unknown origin) assessed as change in aggregation temperature at 25 uM by DSLS thermal shift assay.
Sequence of Transcriptional enhancer factor TEF-3 (Homo sapiens) (Q15561 whole entry): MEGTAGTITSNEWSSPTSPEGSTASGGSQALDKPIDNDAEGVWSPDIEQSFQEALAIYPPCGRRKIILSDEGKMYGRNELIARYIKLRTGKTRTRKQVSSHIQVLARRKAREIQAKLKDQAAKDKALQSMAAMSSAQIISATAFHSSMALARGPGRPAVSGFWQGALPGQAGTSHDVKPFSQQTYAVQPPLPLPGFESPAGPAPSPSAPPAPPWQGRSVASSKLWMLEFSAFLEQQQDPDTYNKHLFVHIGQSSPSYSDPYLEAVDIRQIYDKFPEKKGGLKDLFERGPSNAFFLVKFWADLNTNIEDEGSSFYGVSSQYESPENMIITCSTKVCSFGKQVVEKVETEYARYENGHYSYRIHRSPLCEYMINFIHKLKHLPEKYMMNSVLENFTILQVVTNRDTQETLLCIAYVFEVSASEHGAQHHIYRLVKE
Assay [2] shares this target. Nature of the assay: Inhibition of TEAD4 in human MDA-MB-231 cells assessed as decrease in TEAD-dependent Axl gene expression at 10 uM incubated for 24 hrs by RT-qPCR analysis. The assay is classed as cell-based. In general terms: In qPCR the cycle at which signal appears reflects the starting amount.
Assay [3] shares this target. Nature of the assay: Inhibition of TEAD4 in human MDA-MB-231 cells assessed as decrease in TEAD-dependent NF2 gene expression at 10 uM incubated for 24 hrs by RT-qPCR analysis. The assay is classed as cell-based.
Assay [4] shares this target. Nature of the assay: Inhibition of TEAD4 in human MDA-MB-231 cells assessed as decrease in TEAD-dependent CTGF gene expression at 10 uM incubated for 24 hrs by RT-qPCR analysis. Type of assay: cell-based.
Assay [5] has the same target. The experiment in a line: Inhibition of TEAD4 in human MDA-MB-231 cells assessed as decrease in TEAD-dependent Cyr61 gene expression at 10 uM incubated for 24 hrs by RT-qPCR analysis. The assay is classed as cell-based.
Assay [6] has as its system MDA-MB-231. The experiment in a line: Antimigratory activity against human MDA-MB-231 cells assessed as reduction in cell migration at 10 uM incubated for 48 hrs. Type of assay: functional, cell-based.
The target in assay [7] is Transcriptional enhancer factor TEF-3 (Homo sapiens) (UniProt Q15561). The experiment in a line: Binding affinity to TEAD4 (unknown origin) assessed as change in aggregation temperature at 25 uM by DSF assay. Background: DSF heats the sample and reads unfolding from a dye or from intrinsic fluorescence.

Consider `O=C(O)c1ccc(F)cc1Nc1cccc(-c2cccc(C(F)(F)F)c2)c1`, for which, in assay [1], the deltaT came out at 6.2 °C.

Turning to `Cc1ccc(C(=O)O)c(Nc2cccc(OCc3ccccc3)c2)c1`, the deltaT in assay [1] is 2.3 °C.

As to `O=C(O)c1cccnc1Nc1cccc(C(F)(F)F)c1`, the inhibition entry in assay [2], in assay [3], in assay [4] and in assay [5] was “inactive” in each case.

For `O=C(O)c1ccc(F)cc1Nc1cccc(CCc2ccccc2)c1`, in assay [1], the deltaT stood at 5.6 °C.

For `O=C(O)c1ccc(F)cc1Nc1ccccc1-c1cccs1`, the inhibition result in assay [2], in assay [3], in assay [4] and in assay [5] was “inactive” throughout. Moreover, the deltaT in assay [1] was found to be 5.5 °C.

On to `O=C(O)c1ccccc1Nc1cccc(-c2ccccc2)c1`, for which, in assay [1], the deltaT was found to be 2.1 °C.

`COc1ccc(-c2cccc(Nc3cc(F)ccc3C(=O)O)c2)cc1`: the deltaT in assay [1] worked out at 2.7 °C.

Turning to `O=C(O)c1ccccc1Nc1cccc(OCc2ccccc2)c1`, the deltaT in assay [1] amounted to 2.9 °C.

For `O=C(O)c1ccc(F)cc1Nc1cccc(-c2cccc(F)c2)c1`, the deltaT in assay [1] stood at 3.9 °C.

With `O=C(O)c1ccc(F)cc1Nc1cccc(OCCc2ccccc2)c1`, the inhibition entry in assay [2], in assay [3], in assay [4] and in assay [5] was “Active” in each case. The outcome in assay [6] was Active. Moreover, in assay [1], the deltaT is 5.1 °C.

Take `Cc1ccccc1Nc1cc(F)ccc1C(=O)O`: in assay [1], the deltaT was 2.2 °C.

As for `O=C(O)c1ccc(F)cc1Nc1cccc(-c2ccccn2)c1`, the deltaT in assay [1] amounted to 1 °C.

For `O=C(O)c1ccc(F)cc1Nc1cccc(-c2ccccc2C(F)(F)F)c1`, the deltaT in assay [1] was 2.5 °C.

On to `O=C(O)c1ccc(F)cc1Nc1cccc(-c2cccc(Br)c2)c1`, for which, in assay [1], the deltaT came to 3.9 °C.

As to `O=C(O)c1cccnc1Nc1cccc(OCCc2ccccc2)c1`, the inhibition result in assay [2], in assay [3], in assay [4] and in assay [5] was “inactive” in each case. The deltaT in assay [7] was 3.6 °C.

For the molecule `Cc1ccc(Nc2cccc(OCc3ccccc3)c2)c(C(=O)O)c1`, the inhibition result in assay [2] and in assay [5] was “inactive” throughout. Also, in assay [6], the result was Active. Moreover, the inhibition result in assay [3] and in assay [4] was “Active” throughout. The deltaT in assay [1] is 4 °C.

Take `O=C(O)c1ccc(F)cc1Nc1cccc(OCc2ccccc2)c1`: the inhibition result in assay [2] and in assay [5] was “inactive” in each case. Besides, the inhibition result in assay [3] and in assay [4] was “Active” each time. Also, the deltaT in assay [1] was 3.8 °C.

For the molecule `O=C(O)c1ccc(F)cc1Nc1cccc(-c2cccc(Cl)c2)c1`, the deltaT in assay [1] was 3.1 °C.

On to `O=C(O)c1ccc(F)cc1Nc1cccc(-c2cccnc2)c1`, for which, in assay [1], the deltaT stood at 0 °C.

As to `COc1ccccc1-c1cccc(Nc2cc(F)ccc2C(=O)O)c1`, the deltaT in assay [1] is 1.3 °C.

As for `O=C(O)c1ccc(F)cc1Nc1cccc(-c2ccc(C(F)(F)F)cc2)c1`, the deltaT in assay [1] came out at 4.5 °C.

For the molecule `O=C(O)c1cccnc1Nc1cccc(-c2cccc(C(F)(F)F)c2)c1`, in assay [1], the deltaT amounted to 4.8 °C.

As for `O=C(O)c1ccc(F)cc1Nc1cccc(COc2ccccc2)c1`, the deltaT in assay [1] worked out at 3 °C.

Consider `Cc1ccc(Nc2cc(F)ccc2C(=O)O)cc1OCc1ccccc1`, for which, in assay [1], the deltaT was determined as 3.8 °C.

Consider `COc1cccc(-c2cccc(Nc3cc(F)ccc3C(=O)O)c2)c1`, for which the deltaT in assay [1] stood at 3.5 °C.

With `Cc1cccc(Nc2cc(F)ccc2C(=O)O)c1`, the deltaT in assay [1] amounted to 4.7 °C.

As to `O=C(O)c1ccccc1Nc1cccc(C(F)(F)F)c1`, the inhibition result in assay [2], in assay [3], in assay [4] and in assay [5] was “inactive” each time. The outcome in assay [6] was inactive.

Turning to `Cc1ccc(Nc2cc(F)ccc2C(=O)O)cc1`, in assay [1], the deltaT worked out at 4 °C.

`O=C(O)c1ccc(F)cc1Nc1cccc(Cc2ccccc2)c1`: the deltaT in assay [1] was determined as 3 °C.

In the case of `O=C(O)c1ccc(F)cc1Nc1cccc(-c2ccccc2)c1`, the inhibition entry in assay [2], in assay [3], in assay [4] and in assay [5] was “Active” in each case. Besides, the outcome in assay [6] was Active. Further, the deltaT in assay [1] was 3.4 °C.
